Reference: patent publication US20150366821A1, “ADRENERGIC AGONISTS FOR USE IN TREATING LIVER DAMAGE” (priority 2012, published 2015)

Experiments:
[1] = tested on: APAP induced liver injury; assay: APAP induced liver injury model (serum ALT, % necrosis, deaths); settings: for ALT 3 h after APAP treatment: APAP alone vs APAP with ISO
Method: (§1) Dbh^−/− mice were administered ISO as previously described (Mackintosh, C. A., et al. 2000). Mouse recombinant TWEAK (R&D systems) was administered IP at 0.04 μg/g body weight.
The degree of liver injury was assessed by histology and serum ALT. All liver sections were stained with haematoxylin and eosin (H&E) and scanned by NanoZoomer (Hamamatsu, Japan). Necrotic area was measured and expressed as a percentage of necrotic tissue in whole area of liver section using NDP.view (Hamamatsu, Japan).

[2] = tested on: 603B cells; assay: 603B cell proliferation assay (CCK-8 / direct cell counts); assay type: cell-based, murine
Method: Cell proliferation assay was performed using the Cell counting Kit-8 (CCK-8) according to the manufacturer's protocol.
To further confirm the CCK-8 assay we also directly counted the cell numbers in some experiments. Adherent cells were treated with 0.25% trypsin solution containing 0.02% EGTA in Ca^2+ and Mg^2+ free phosphate-buffered saline at 37° C. for 5 min, and the viable cell number and dead cell number was determined using Nucleocounter (Chemometec).

[3] = tested on: β-catenin in hepatocytes; assay: β-catenin expression on primary hepatocytes (western blotting); assay type: cell-based, mice; settings: data not shown
Method: Western blotting was performed as described (Soeda, J et al., 2012). Western blots shown are representative of 2 or 3 independent repeats. Semi-quantitative analysis of western blots by densitometry was carried out using LabWorks 4.6 software (UVP, USA).

[4] = tested on: canonical Wnt pathway (β-catenin) in 603B cells; assay: Canonical Wnt pathway in 603B cells (western blot, immunocytochemistry, real-time PCR); assay type: cell-based, murine
[5] = tested on: HPC number and liver injury; assay: Infusion of SNS agonists into spontaneously steatohepatitic ob/ob mice; assay type: in vivo
[6] = tested on: canonical Wnt pathway (β-catenin, Wnt ligands); assay: Canonical Wnt pathway in livers of APAP treated mice (western blot, immunohistochemistry, Wnt ligand PCR); assay type: in vivo
Method: Semi-quantitative real time PCR was done with Rotor-Gene 3000 (Corbett Robotics) and QuantiFast SYBR Green PCR kit (Qiagen). All real-time PCR reactions were performed in triplicate with GAPDH as an internal control. Target gene levels in treated samples are presented as a ratio to levels detected in corresponding control samples, according to the ΔΔCt method. Western blotting was performed as described (Soeda, J et al., 2012). Western blots shown are representative of 2 or 3 independent repeats. Semi-quantitative analysis of western blots by densitometry was carried out using LabWorks 4.6 software (UVP, USA).

[7] = tested on: primary hepatocytes
[8] = tested on: hepatic progenitor cells (HPC); assay: CK19 positive HPC number in Dbh−/− mice infused with isoprenaline; assay type: in vivo; settings: ISO infused at 20 mg/kg/day
Method: as §1

[9] = tested on: hepatic progenitor cells (HPC); assay: HPC number in livers of normal C57BL/6J mice (EpCAM flow cytometry, CK19 immunohistochemistry); assay type: in vivo; settings: ISO 2.5 mg/kg
[10] = tested on: HPC expansion and hepatomegaly; assay: Dbh−/− mice on a diet inducing NASH; assay type: in vivo; settings: infusion of ISO
[11] = tested on: hepatic progenitor cells (HPC); assay: HPC number in APAP induced liver injury model (flow cytometry, immunohistochemistry)
[12] = tested on: canonical Wnt pathway on HPC; assay: Canonical Wnt pathway in liver of ISO treated mice (PCR, immunohistochemistry); assay type: in vivo
[13] = tested on: hepatic stellate cells (HSC) and Kupffer cells (KC); assay: Wnt expression in isolated liver cell types ex vivo; assay type: cell-based, mice; settings: presence of ISO
[14] = tested on: HPC population and liver injury; settings: in vivo conditions simulating NASH
[15] = tested on: liver progenitors and liver injury; settings: chronic model of liver disease; cited from earlier work
[16] = tested on: hepatic progenitor cells (HPC); assay type: in vivo, mice; settings: recombinant TWEAK 0.04 μg/g IP
Text: FIG. 5C are representative images of immunohistochemical staining with CK19 (DAB chromogen, brown), upper panels; and CK19 with Ki67 (AEC chromogen, red), double staining (middle panels) and NFκB p65 immunostaining (lower panels). Insert=higher magnification, arrow head indicates positive staining of ki67 in CK 19+ve HPCs. White arrow head indicates nuclear localization of NFKb p65 in periportal ductular cells;
Nuclei were stained with DAPI (Vector).

[17] = 24 h after APAP 375 mg/kg, APAP alone vs ISO (2.5 mg/kg) 1 h after APAP

CNC[C@H](O)c1cccc(O)c1 [PE, phenylephrine]
ALT ([1]; APAP 375 mg/kg, PE 3 mg (3 mg/kg) 1 h after APAP, 24 hrs): 2000±1200 | ALT ([1]; APAP 375 mg/kg, PE 10 mg (10 mg/kg) 1 h after APAP, 24 hrs): 450±200 | 603B cell proliferation ([2]; PE 10 pM to 10 μM): induced moderate but significant proliferation

CC(=O)Nc1ccc(O)cc1 [APAP, Paracetamol]
ALT 3 h after APAP treatment [1]: significant elevation in ALT | ALT [1, 17]: 3332±462.9 IU/L | deaths ([1]; APAP 500 mg/kg intraperitoneally): significant number of deaths

Wnt3a
β-catenin expression on hepatocytes (Western blotting) [3]: induced increased β-catenin expression

CC(C)NCC(O)c1ccc(O)c(O)c1 (stereo not shown) [ISO, Isoprenaline]
Wnt1, 3a, 6 and ma mRNA expression ([4]; 10 μM ISO, real-time PCR): significantly increased | expression of cyclin D1 ([4]; 10 μM ISO, western blot): significantly upregulated | expression of dephophorelated β-catenin (activated β-catenin) ([4]; 10 μM ISO, western blot): significantly upregulated | total β-catenin expression ([4]; 10 μM ISO, western blot): significantly increased | nuclear localisation of β-catenin ([4]; immunofluorescence cytochemistry): accumulation of β-catenin in the nuclei | HPC number [5]: increases in HPC number | liver injury [5]: reduction in liver injury | β-catenin expression on hepatocytes (Western blotting) [3]: did not increase β-catenin expression | β-catenin expression in liver (Western blotting) ([6]; 24 h after injection, ISO treated vs APAP alone and controls): significantly increased | Wnt6 expression in total liver ([6]; APAP+ISO group compared to APAP only group, 24 h): significantly higher expression | Wnt 10a expression ([6]; APAP+ISO group, 2 h after APAP administration): significantly higher expression | β-catenin activation ([6]; APAP+ISO group, 3 h after APAP administration): significant β-catenin activation | activated β-catenin staining in liver (immunohistochemistry) ([6]; APAP+ISO treated groups, 24 h): strong β-catenin staining | protection of hepatocytes from APAP induced death (LDH release) ([7]; ISO pre-treatment 100 pM-10 μM, 10 mM APAP): did not protect | ALT 3 h after APAP treatment [1]: significantly attenuated | ALT [1, 17]: 674.1±173 IU/L | hepatic necrosis [1, 17]: 18.48±1.935% | effect on deaths after APAP ([1]; APAP 500 mg/kg intraperitoneally, ISO treatment): reduced by ISO treatment | APAP induced-liver injury (ALT) ([1]; ISO administered 3 hrs post APAP): markedly reduced APAP induced-liver injury | HPC numbers (CK-19 positive cells) [8]: significantly recovered HPC numbers | number of HPC cells (EpCAM flow cytometry, CK19 immunohistochemistry) [9]: increased the number of the HPC cells | loss of hepatomegaly and expansion of HPC on NASH diet [10]: reversed | 603B cell proliferation ([2]; ISO 100 pM-10 μM): induced 603B cell proliferation | number of HPCs (flow cytometry and immunohistochemistry) ([11]; APAP 375 mg/kg + ISO vs APAP alone): significantly increased the number of HPCs | HPC density in the smallest portal tract (CK19 positivity) ([11]; APAP+ISO group compared to APAP alone group): significantly increased | Wnt6 mRNA in total liver ([12]; 24 h after ISO injection): upregulation of Wnt6 mRNA | β-catenin immunoreactivity on periportal ductular cell ([12]; 24 h after ISO, immunohistochemistry): strong β-catenin immunoreactivity | Wnt 6 expression in HSC or KC [13]: did not induce upregulation of Wnt 6

NC[C@H](O)c1ccc(O)c(O)c1 [NE, Norepinephrine]
HPC number [5]: increases in HPC number | liver injury [5]: reduction in liver injury

CC(C)NCC(O)COc1cccc2ccccc12 (stereo not shown) [PRL, propranolol]
HPC population [14]: expanded the HPC population | effect on ISO induced 603B proliferation ([2]; pre-treatment with 10 μM PRL, 10 μM ISO): inhibited ISO induced proliferation | numbers of HPCs (CK19 positive cells density) ([11]; APAP with subsequent PRL): reduced numbers of HPCs

CC(=O)N[C@@H](CS)C(=O)O [NAC, N-Acetyl Cysteine]
hepatocyte injury (ALT) ([1]; NAC 150 mg/kg administered 1 hour following APAP overdose): markedly reduces hepatocyte injury | protection from APAP injury (ALT) ([1]; NAC administered 3 hrs post APAP): did not have a protective role

COc1cc2nc(N3CCN(C(=O)c4ccco4)CC3)nc(N)c2cc1OC [PRZ, prazosin]
liver injury [15]: reduced injury | liver progenitors [15]: expanded liver progenitors

B1: TWEAK: Tumour associated weak inducer of apoptosis; mouse recombinant TWEAK (R&D systems) (protein, UniProt O43508 94-249, looked up)
Tumor necrosis factor ligand …: SAPKGRKTRARRAIAAHYEVHPRPGQDGAQAGVDGTVSGWEEARINSSSPLRYNRQIGEFIVTRAGLYYLYCQVHFDEGKAVYLKLDLLVDGVLALRCLEEFSATAASSLGPQLRLCQVSGLLALRPGSSLRIRTLPWAHLKAAPFLTYFGLFQVH
APAP induced liver injury (% necrosis, serum ALT) ([1]; TWEAK 0.04 μg/g pre-treatment before APAP, 24 h): protected from APAP induced liver injury | HPC proliferation (CK19+ve cells) [16]: induced HPC proliferation

B2: DKK1: Wnt antagonist, recombinant mouse Dkk1 (protein, UniProt O54908 32-272, looked up)
Dickkopf-related protein 1: TLNSVLINSNAIKNLPPPLGGAGGQPGSAVSVAPGVLYEGGNKYQTLDNYQPYPCAEDEECGSDEYCSSPSRGAAGVGGVQICLACRKRRKRCMRHAMCCPGNYCKNGICMPSDHSHFPRGEIEESIIENLGNDHNAAAGDGYPRRTTLTSKIYHTKGQEGSVCLRSSDCAAGLCCARHFWSKICKPVLKEGQVCTKHKRKGSHGLEIFQRCYCGEGLACRIQKDHHQASNSSRLHTCQRH
effect on protection by ISO stimulated 603B conditioned media ([7]; recombinant DKK1 0.1 μg/ml with CM): reversed | effect on protection by EpCAM positive cell administration ([1]; APAP + EpCAM+ve cells + DKK1): reversed the effect of EpCAM positive cell administration | proliferation of ISO-treated vs ISO plus DKK1-treated 603B cells ([2]; recombinant Dkk1 0.1 μg/ml, ISO 10 μM, CCK8): trend towards statistical difference
